From publication PMC10374968, “Drosophila class-I myosins that can impact left-right asymmetry have distinct ATPase kinetics” (The Journal of Biological Chemistry, 2023) come the findings set out here.

Where two headings read alike, the source gives them in different places.

In assay [1] the target is T1, myo1D (myosin-1D; myo31DF) (Drosophila melanogaster, UniProt Q23978). The assay can be described thus: stopped-flow pyrene-actin fluorescence, slow-phase amplitude vs MgADP, quadratic fit. The assay is classed as binding. Also on record: full-length, C-terminal FLAG-Avi tags kept (biotinylated for gliding); baculovirus, Sf9 or Hi5 insect cells; heavy chain 117 kDa, calmodulin light chains; with Calmodulin (Gallus gallus, recombinant); Actin, alpha skeletal muscle (Oryctolagus cuniculus). The note with it: actomyosin complex; chased with 1 mM MgATP; KMg25: 10 mM Mops pH 7.0, 25 mM KCl, 1 mM MgCl2, 1 mM EGTA, 1 mM DTT; 20 C.
T1 sequence (Q23978 whole entry): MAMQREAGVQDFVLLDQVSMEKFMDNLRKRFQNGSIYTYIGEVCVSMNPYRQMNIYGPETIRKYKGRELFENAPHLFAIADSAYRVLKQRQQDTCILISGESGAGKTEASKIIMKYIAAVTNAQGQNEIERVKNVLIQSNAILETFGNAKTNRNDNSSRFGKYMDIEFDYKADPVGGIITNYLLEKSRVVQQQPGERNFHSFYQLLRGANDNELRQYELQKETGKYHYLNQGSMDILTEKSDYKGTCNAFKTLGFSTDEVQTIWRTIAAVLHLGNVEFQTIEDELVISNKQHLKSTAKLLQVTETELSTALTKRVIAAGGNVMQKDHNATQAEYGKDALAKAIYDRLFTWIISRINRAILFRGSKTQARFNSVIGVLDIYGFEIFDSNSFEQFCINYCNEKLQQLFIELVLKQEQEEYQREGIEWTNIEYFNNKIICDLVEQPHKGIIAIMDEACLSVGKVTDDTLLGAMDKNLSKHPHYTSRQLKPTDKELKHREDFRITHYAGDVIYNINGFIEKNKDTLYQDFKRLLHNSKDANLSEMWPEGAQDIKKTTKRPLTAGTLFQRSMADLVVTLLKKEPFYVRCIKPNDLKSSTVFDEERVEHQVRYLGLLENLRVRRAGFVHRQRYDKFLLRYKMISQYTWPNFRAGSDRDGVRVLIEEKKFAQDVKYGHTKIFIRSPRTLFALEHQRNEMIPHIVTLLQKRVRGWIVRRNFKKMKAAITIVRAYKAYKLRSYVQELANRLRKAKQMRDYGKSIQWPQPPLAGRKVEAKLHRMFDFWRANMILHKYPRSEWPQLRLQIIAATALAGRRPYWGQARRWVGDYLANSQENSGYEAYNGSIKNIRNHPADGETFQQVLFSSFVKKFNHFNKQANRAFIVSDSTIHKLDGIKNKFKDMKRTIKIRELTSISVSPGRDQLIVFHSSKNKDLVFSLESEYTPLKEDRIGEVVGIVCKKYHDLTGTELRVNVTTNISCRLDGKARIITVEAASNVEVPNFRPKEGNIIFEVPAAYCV

The target of assay [2] is T1, myo1D (myosin-1D; myo31DF). The conditions noted are these: read-out: Myo1D; rapid-equilibrium binding step to actomyosin (printed in μM, used as association constant in Equation 2); KMg25 pH 7.0, 1 mM MgCl2; 20 C.
From the text: stopped-flow MgATP-induced dissociation from pyrene-actin, hyperbolic fit on myo1D (myosin-1D; myo31DF)
Assay [3] addresses myo1C (myosin-1C; myo61F) (Drosophila melanogaster, UniProt Q23979). The conditions noted are these: read-out: Myo1C; rapid-equilibrium binding step to actomyosin (printed in μM, used as association constant in Equation 2); KMg25 pH 7.0, 1 mM MgCl2; 20 C.
From the text: stopped-flow MgATP-induced dissociation from pyrene-actin, hyperbolic fit on myo1C (myosin-1C; myo61F)

myo1C (myosin-1C; myo61F), sequence (Q23979 whole entry): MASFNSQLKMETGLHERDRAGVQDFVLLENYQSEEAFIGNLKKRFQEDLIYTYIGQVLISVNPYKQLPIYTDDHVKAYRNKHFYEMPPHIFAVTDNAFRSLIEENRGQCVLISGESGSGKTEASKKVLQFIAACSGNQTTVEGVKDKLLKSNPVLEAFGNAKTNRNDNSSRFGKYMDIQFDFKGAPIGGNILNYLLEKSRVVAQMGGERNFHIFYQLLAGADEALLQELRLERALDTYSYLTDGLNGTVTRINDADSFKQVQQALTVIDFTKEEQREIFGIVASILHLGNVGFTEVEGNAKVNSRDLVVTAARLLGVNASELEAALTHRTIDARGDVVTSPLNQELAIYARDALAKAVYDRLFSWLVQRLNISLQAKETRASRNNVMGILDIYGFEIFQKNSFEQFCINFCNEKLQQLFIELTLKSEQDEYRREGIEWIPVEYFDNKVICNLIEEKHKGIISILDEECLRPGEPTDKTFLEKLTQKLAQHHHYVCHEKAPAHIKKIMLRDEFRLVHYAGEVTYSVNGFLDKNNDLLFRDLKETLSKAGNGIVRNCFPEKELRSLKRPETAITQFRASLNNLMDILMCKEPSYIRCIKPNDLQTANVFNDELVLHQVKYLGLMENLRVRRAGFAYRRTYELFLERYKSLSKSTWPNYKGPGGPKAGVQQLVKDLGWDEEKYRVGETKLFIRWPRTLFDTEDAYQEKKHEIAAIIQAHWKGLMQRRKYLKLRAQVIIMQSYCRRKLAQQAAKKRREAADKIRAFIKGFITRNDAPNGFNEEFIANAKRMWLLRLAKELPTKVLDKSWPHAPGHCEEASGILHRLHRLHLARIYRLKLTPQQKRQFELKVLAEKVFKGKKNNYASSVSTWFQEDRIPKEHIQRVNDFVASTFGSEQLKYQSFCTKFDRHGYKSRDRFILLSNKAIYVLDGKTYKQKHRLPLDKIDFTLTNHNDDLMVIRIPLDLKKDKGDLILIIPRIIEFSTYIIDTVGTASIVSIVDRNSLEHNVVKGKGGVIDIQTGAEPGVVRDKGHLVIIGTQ

On to `Nc1ncnc2c1ncn2[C@@H]1O[C@H](COP(=O)(O)OP(=O)(O)O)[C@@H](O)[C@H]1O` [MgADP], for which the Kd in assay [1] turned out to be 0.044 ± 0.002 µM. On to `Nc1ncnc2c1ncn2[C@@H]1O[C@H](COP(=O)(O)OP(=O)(O)OP(=O)(O)O)[C@@H](O)[C@H]1O` [MgATP], for which the Kd was determined as 118 ± 15 µM in assay [2] and 73 ± 11 µM in assay [3].
